The values that follow come from patent US11254633B2, “Cannabis thin layer decarboxylation” (priority 2018, dated 2022).

For data set [1] the following is noted: cited from earlier work.
A further data set concerns neuroprotection. Conditions: CBD at 1-10 uM; cited from earlier work.
For data set [2] the following is noted: plant material in a 110° C. oven, Taschwer; cited from earlier work.
The target in the next data set is TRPV1 receptor (Homo sapiens, UniProt Q8NER1). Conditions: CBD at 1-10 uM; cited from earlier work.
The subject of data set [3] is alpha1 adrenoreceptors and u-opioid receptors. Conditions: CBD at 1-10 uM; cited from earlier work.
The test system of another data set is Membrane. Conditions: CBD at 1-10 uM; cited from earlier work.
For data set [4] the following is noted: cited from earlier work. This is another data set of the same source.
Data set [5] can be described thus: CBD plasma concentration after dosing. Format: in vivo. As to the method:
The dosing of CBD for a given range of activity is predictable, Table 1. […] This is a desirable group of activities to select. CBD at one micromolar is equivalent to 0.3 ng per ML and 10 micromolar is equivalent to 3 ng per ML. AUC for CBD ranges widely for different subjects but reportedly averages about 4 ng hour per ML. A single dose of 4 mg would provide an average 0.16 ng/ml concentration over 24 hours. […] Thus in 80 mg dose would provide an average of 10 micromolar over 24 hours. A single dose would produce a single large peak with return to baseline within about 10 hours, again this is variable between individuals. It is known that as frequency of dosing increases the plasma concentration will approach a steady-state or constant value between doses, eliminating the large peaks and valleys associated with infrequent doses. A reasonable dosing schedule might be 25 mg CBD three times daily to achieve 75 mg daily, about 9.4 micromolar average, at the high end of the 1-10 uM range. Similarly a 2.5 mg dose every eight hours would yield an approximately 1 micromolar average concentration.

The test system of the next data set is Human keratinocyte. Conditions: CBD at 1-10 uM; cited from earlier work.
The next data set concerns the target T1, 5HT-1a receptor (Homo sapiens, UniProt P08908).
T1 sequence (P08908 1-422): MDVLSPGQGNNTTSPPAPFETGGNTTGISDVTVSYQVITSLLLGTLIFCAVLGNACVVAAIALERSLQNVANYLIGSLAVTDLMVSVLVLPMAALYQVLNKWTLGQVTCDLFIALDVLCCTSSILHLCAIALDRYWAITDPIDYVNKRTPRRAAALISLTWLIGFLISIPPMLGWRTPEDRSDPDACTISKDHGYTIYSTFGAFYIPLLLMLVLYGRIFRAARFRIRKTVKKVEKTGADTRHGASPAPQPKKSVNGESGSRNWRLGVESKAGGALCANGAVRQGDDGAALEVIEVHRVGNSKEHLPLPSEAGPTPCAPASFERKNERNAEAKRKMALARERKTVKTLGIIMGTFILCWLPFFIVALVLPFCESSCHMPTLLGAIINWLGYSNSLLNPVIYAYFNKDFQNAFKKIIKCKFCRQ
Conditions: CBD at >10 uM; cited from earlier work.

For data set [6] the following is noted: for time to full conversion (decarboxylation): thin layer, 400 deg F.
For data set [7] the following is noted: 110° C., FIG. 7, cited from earlier work.
A further data set concerns the target CB 2 receptor (Homo sapiens, UniProt P34972). Conditions: fold higher than THC; cited from earlier work.
The target of a further data set is CB one receptor (Homo sapiens, UniProt P21554). Conditions: fold lower than THC; cited from earlier work.
The test system of a further data set is onychomycosis. Conditions: cited from earlier work.
The conditions of data set [8]: two-13-year-olds in one study; cited from earlier work.
A further data set has as its system pain patients. Conditions: initial studies in pain patients; cited from earlier work.
The conditions of data set [9]: cited from earlier work. This is another data set of the same source.
For data set [10] the following is noted: aqueous; cited from earlier work.
The mark [11] stands for this setting: 100° C. and 110° C., FIG. 6C, 6D, sum decreases significantly.

Each structure is given as a SMILES string. Like-named read-outs stand apart in the source and are kept apart here.

TRPV1 receptor, sequence (Q8NER1 whole entry): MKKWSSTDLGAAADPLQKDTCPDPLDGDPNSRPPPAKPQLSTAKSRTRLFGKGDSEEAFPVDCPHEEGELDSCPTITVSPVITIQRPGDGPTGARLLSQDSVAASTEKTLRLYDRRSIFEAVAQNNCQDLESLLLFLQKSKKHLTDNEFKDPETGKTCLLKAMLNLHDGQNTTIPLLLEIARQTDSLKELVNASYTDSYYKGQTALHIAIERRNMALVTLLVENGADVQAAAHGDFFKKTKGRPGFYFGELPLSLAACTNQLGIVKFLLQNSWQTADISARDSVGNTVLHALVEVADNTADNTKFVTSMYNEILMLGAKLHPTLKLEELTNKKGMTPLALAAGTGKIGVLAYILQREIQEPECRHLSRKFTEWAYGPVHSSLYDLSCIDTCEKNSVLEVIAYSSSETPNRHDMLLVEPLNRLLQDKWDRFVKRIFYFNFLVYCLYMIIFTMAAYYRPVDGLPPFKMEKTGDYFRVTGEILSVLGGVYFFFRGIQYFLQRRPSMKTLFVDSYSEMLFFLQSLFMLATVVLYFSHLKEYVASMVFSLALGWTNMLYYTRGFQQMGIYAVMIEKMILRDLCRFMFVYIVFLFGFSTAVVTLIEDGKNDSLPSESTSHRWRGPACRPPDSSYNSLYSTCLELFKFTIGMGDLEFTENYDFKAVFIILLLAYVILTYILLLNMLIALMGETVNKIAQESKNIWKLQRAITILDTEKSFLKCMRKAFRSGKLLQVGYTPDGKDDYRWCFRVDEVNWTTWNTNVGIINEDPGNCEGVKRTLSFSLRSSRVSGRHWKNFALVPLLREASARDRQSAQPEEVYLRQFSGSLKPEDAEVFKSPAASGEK
CB 2 receptor, sequence (P34972 whole entry): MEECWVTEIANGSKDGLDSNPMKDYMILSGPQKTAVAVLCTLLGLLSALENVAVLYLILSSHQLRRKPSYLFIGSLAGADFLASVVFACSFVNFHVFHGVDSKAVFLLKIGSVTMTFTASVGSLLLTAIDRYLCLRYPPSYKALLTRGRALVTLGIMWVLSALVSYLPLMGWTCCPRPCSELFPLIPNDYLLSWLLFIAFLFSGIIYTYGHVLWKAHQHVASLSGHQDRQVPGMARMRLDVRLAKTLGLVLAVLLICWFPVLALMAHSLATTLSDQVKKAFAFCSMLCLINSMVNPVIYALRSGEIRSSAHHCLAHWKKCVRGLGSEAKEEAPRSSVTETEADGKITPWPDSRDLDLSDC
CB one receptor, sequence (P21554 whole entry): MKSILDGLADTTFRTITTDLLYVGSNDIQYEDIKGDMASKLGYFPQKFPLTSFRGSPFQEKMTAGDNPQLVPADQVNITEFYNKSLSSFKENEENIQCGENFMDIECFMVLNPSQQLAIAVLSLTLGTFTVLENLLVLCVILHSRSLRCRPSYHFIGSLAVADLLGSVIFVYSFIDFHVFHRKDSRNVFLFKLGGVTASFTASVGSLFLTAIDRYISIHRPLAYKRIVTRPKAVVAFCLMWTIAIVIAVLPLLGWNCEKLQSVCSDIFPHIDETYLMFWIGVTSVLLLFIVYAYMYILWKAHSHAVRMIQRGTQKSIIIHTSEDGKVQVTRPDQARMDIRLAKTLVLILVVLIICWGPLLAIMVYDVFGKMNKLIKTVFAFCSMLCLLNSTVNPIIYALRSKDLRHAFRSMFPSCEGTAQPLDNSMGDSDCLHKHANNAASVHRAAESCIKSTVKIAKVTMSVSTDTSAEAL

Consider `C=C(C)[C@@H]1CCC(C)=C[C@H]1c1c(O)cc(CCCCC)cc1O` [CBD, cannabidiol], for which the “AUC for CBD, average” value in data set [1] (ranges widely for different subjects) is “about 4 ng hour per ML”. The “return to baseline after a single dose” value in data set [1] (single dose, variable between individuals) is no more than 10 h. The “action induced by CBD: Increased or activated signs of neuroprotection” value in the data set on neuroprotection is “Signs of neuroprotection”. Also, the “time to peak CBD” value is 135 min in data set [2] and 90 min in data set [4] (110° C., cannabis oil in an open vial in an oven, FIG. 6D). Moreover, the “action induced by CBD: Increased or activated TRPV1 receptor” value on TRPV1 receptor is reported as “TRPV1 receptor”. The “action induced by CBD: Decreased activation of alpha1 adrenoreceptors and u-opioid receptors” value in data set [3] is “Activation of alpha1 adrenoreceptors and u-opioid”. For the same compound, the “action induced by CBD: Increased or activated Membrane stability” value with Membrane is on record as “Membrane stability”. In addition, the “degradation judged from sum of CBDA and CBD concentration” value was “no degradation” in data set [4] (80° C. and 90° C., FIG. 6A, 6B); “loss” in [4] (setting [11]). In addition, in data set [4] (120° open reactor, FIG. 6E), the “loss of converted CBD compared to the closed reactor at the same temperature” value is reported as 45-55%. The average concentration result is listed as “approximately 1 micromolar” in data set [5] (2.5 mg dose every eight hours) and “about 9.4 micromolar” in data set [5] (25 mg CBD three times daily, 75 mg daily). For the same compound, the “average concentration over 24 hours” value was 10 µM in data set [5] (80 mg dose), 0.32 ng per ML in data set [5] (8 milligrams dose) and 0.16 ng/mL in data set [5] (single dose of 4 mg). In data set [5] (8 milligrams dose), the “average concentration over 24 hours, as molarity” value was “about one micromolar”. Besides, the “action induced by CBD: Decreased human keratinocyte proliferation” value in the data set with Human keratinocyte is “Human keratinocyte proliferation”. Further, the “action induced by CBD: Ativated 5HT-1a receptor” value on 5HT-1a receptor is listed as 5HT-1a receptor.

For `C=C(C)[C@@H]1CCC(C)=C[C@H]1c1c(O)cc(CCCCC)c(C(=O)O)c1O` [CBDA], the “degradation judged from sum of CBDA and CBD concentration” value in [4] (80° C. and 90° C., FIG. 6A, 6B) is listed as “no degradation”; in data set [4] (setting [11]) it was “loss”. Further, in [4] (120° C. open reactor, FIG. 6E, incomplete conversion to CBD), the “loss of CBDA” value is “rapid loss”. In data set [6], the “time to full conversion (decarboxylation)” value is “fully converted in under a minute”.

Take `CCCCCc1cc(O)c(C/C=C(\C)CCC=C(C)C)c(O)c1C(=O)O` [CBGA]: in data set [7], the “consumption of CBGA” value was “complete consumption”.

Take `CCCCCc1cc(O)c(C/C=C(\C)CCC=C(C)C)c(O)c1` [CBG]: the “loss of total CBG” value in data set [7] (in the time decarboxylation is maximized) was 50%.

Take `CCCCCc1cc(O)c2c(c1)OC(C)(C)c1ccc(C)cc1-2` [CBN]: the “affinity for CB 2 receptor, higher than THC” value at CB 2 receptor is on record as 3 fold. At CB one receptor, the “affinity for CB one receptor, lower than THC” value is recorded as 2 fold.

Regarding `C=C1CC[C@H]2O[C@]2(C)CC[C@@H]2[C@@H]1CC2(C)C` [Caryophyllene Oxide], in the data set on onychomycosis (at 8% concentration), the “time in which effective in onychomycosis” value is 15 days. For the same compound, in the data set with onychomycosis (in vivo), the “clinical onychomycosis efficacy versus reference drugs” value was “efficacy similar to cyclopiroxolamine and sulconazole”.

For the compound `CCCCCc1cc(O)c2c(c1)OC(C)(C)[C@@H]1CC=C(C)C[C@@H]21` [Delta 8 THC], the psychoactive effect entry in data set [8] is on record as “no psychoactive effect”.

Take `CCCCCc1cc2c(c(O)c1C(=O)O)[C@@H]1C=C(C)CC[C@H]1C(C)(C)O2` [THCA]: the “time to full conversion (decarboxylation)” value in [6] is listed as “fully converted in under a minute”.

As for `CCCCCc1cc(O)c2c(c1)OC(C)(C)[C@@H]1CCC(C)=C[C@@H]21` [THC], the “analgesic effect in pain patients” value in the data set on pain patients was “provided analgesic effects”. Besides, the “anti-inflammatory activity relative to hydrocortisone” value in [9] (relative to hydrocortisone) is recorded as “two times”. Moreover, in [9] (times the activity of aspirin), the “anti-inflammatory activity relative to aspirin” value was 20 times. Also, the “loss of total THC (THC A+ THC) from the starting condition” value in data set [4] (120° C. closed reactor) is on record as “approximately 10%”. Also, the “loss of THC relative to 120° C. closed reactor” value in data set [4] (open reactor, 100° C. (212° F.), FIG. 6C) is “about 28%”. Further, the “loss compared to that maximally achieved at 120° C. in the closed reactor” value in [4] (open reactor, 110° C. (230° F.), FIG. 6d) is recorded as “about 28%”. The THC remaining result in data set [6] (20 min) is “only a trace”. Moreover, in data set [10], the “concentration at which THC saturates in cannabis tea” value is on record as “about 10 mg/L”.
